Data published in ChEMBL document CHEMBL1201862, “PubChem BioAssay data set” (2004).
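Step 1: Grow cells in 96-well plates. Step 2: Expose to compound for 48 hours at 5 concentrations. Step 3: Interpolate endpoints linearly; if unreached, use highest concentration. GI50 marks 50% less growth.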 The source made the active and inactive calls. Cut-off read from the data, not from the text of the source: active = GI50 up to about 1.1 µM and inactive = higher.

Assays:
Experiment in all cases: NCI-60 cell line screen, 48 h
M14 = tested on: M14
HL-60 = tested on: HL-60
MDA-MB-231 = tested on: MDA-MB-231
MDA-MB-435 = tested on: MDA-MB-435
BT-549 = tested on: BT-549
UACC-257 = tested on: UACC-257
HOP-62 = tested on: HOP-62
NCI-H226 = tested on: NCI-H226
OVCAR-5 = tested on: OVCAR-5
SK-OV-3 = tested on: SK-OV-3
OVCAR-8 = tested on: OVCAR-8
SF-268 = tested on: SF-268
HCT-116 = tested on: HCT-116
OVCAR-3 = tested on: OVCAR-3
Malme-3M = tested on: Malme-3M
SK-MEL-28 = tested on: SK-MEL-28
SK-MEL-5 = tested on: SK-MEL-5
A549 = tested on: A549
MCF7 = tested on: MCF7
A498 = tested on: A498

| SMILES | GI50 (M14) | GI50 (HL-60) | GI50 (MDA-MB-231) | GI50 (MDA-MB-435) | GI50 (BT-549) | GI50 (UACC-257) | GI50 (HOP-62) | GI50 (NCI-H226) | GI50 (OVCAR-5) | GI50 (SK-OV-3) | GI50 (OVCAR-8) | GI50 (SF-268) | GI50 (HCT-116) | GI50 (OVCAR-3) | GI50 (Malme-3M) | GI50 (SK-MEL-28) | GI50 (SK-MEL-5) | GI50 (A549) | GI50 (MCF7) | GI50 (A498) |
| --- | --- | --- | --- | --- | --- | --- | --- | --- | --- | --- | --- | --- | --- | --- | --- | --- | --- | --- | --- | --- |
| O=C(c1cccnc1)N1N=C(c2ccccc2)CC1(O)c1cc(F)c(Cl)cc1Cl (stereo not drawn) | 22 µM (inactive) | 21.4 µM (inactive) | 15.7 µM (inactive) | 26.9 µM (inactive) | 20.3 µM (inactive) | 18.6 µM (inactive) | 16.1 µM (inactive) | 15.6 µM (inactive) | 32.8 µM (inactive) | 23.7 µM (inactive) | 25.5 µM (inactive) | 30.5 µM (inactive) | 13.8 µM (inactive) | 7.31 µM (inactive) | 29.2 µM (inactive) | 25.1 µM (inactive) | 13.9 µM (inactive) | 27.6 µM (inactive) |  |  |
| O=C(CSCC(=O)N/N=C/c1cccc(O)c1)N/N=C/c1cccc(O)c1 | > 100 µM (inactive) | > 100 µM (inactive) | > 100 µM (inactive) | > 100 µM (inactive) |  | > 100 µM (inactive) | > 100 µM (inactive) | 82.4 µM (inactive) | > 100 µM (inactive) | > 100 µM (inactive) | > 100 µM (inactive) | > 100 µM (inactive) | > 100 µM (inactive) | > 100 µM (inactive) | > 100 µM (inactive) | > 100 µM (inactive) | > 100 µM (inactive) | > 100 µM (inactive) | > 100 µM (inactive) | > 100 µM (inactive) |
| CN(CCCNC(=O)c1cn(C)c2c1ccc1cc(Cl)ccc12)CCCNC(=O)c1cn(C)c2c1ccc1cc(Cl)ccc12 | 1.85 µM (inactive) | 0.914 µM (active) | 1.75 µM (inactive) | 1.71 µM (inactive) | 8.99 µM (inactive) | 2.19 µM (inactive) | 1.65 µM (inactive) | 20.6 µM (inactive) | 3.09 µM (inactive) | 1.82 µM (inactive) | 1.82 µM (inactive) | 1.72 µM (inactive) | 1.88 µM (inactive) | 1.9 µM (inactive) | 2.52 µM (inactive) | 1.73 µM (inactive) | 4.99 µM (inactive) | 2.06 µM (inactive) |  | 5.86 µM (inactive) |
| O=C(ON=C1c2ccccc2C(Br)C(Br)c2ccccc21)c1cc([N+](=O)[O-])cc([N+](=O)[O-])c1 (stereo not drawn) | 17.6 µM (inactive) | 0.158 µM (active) | 19.2 µM (inactive) | 18.5 µM (inactive) |  | 18 µM (inactive) | 18 µM (inactive) | 24.9 µM (inactive) | 22.4 µM (inactive) | 27.1 µM (inactive) | 17.3 µM (inactive) | 17.8 µM (inactive) | 18.5 µM (inactive) | 19.9 µM (inactive) | 18.5 µM (inactive) | 18.9 µM (inactive) | 16.6 µM (inactive) | 30.4 µM (inactive) | 24.7 µM (inactive) | 17.6 µM (inactive) |
| N#CC(C#N)=c1c(=O)c2c3ccccc3cc3cccc1c32 | > 100 µM (inactive) | 68.1 µM (inactive) | > 100 µM (inactive) | > 100 µM (inactive) | > 100 µM (inactive) | > 100 µM (inactive) | 29 µM (inactive) | > 100 µM (inactive) | > 100 µM (inactive) | > 100 µM (inactive) |  | > 100 µM (inactive) | 72.6 µM (inactive) | > 100 µM (inactive) |  | 89.9 µM (inactive) | > 100 µM (inactive) | > 100 µM (inactive) |  | > 100 µM (inactive) |
| O=c1c2cc(S(=O)(=O)O)ccc2nc(COc2ccc(Oc3ccc(Cl)cc3Cl)cc2)n1C(=S)Nc1ccc(Cl)cc1 | 20.2 µM (inactive) | 0.457 µM (active) |  | 18.6 µM (inactive) | 19.6 µM (inactive) | 25.4 µM (inactive) | 20.5 µM (inactive) | 18.2 µM (inactive) | 19.8 µM (inactive) | 21.3 µM (inactive) | 21.6 µM (inactive) | 16.3 µM (inactive) | 22.5 µM (inactive) | 21.5 µM (inactive) | 21.6 µM (inactive) |  | 17.7 µM (inactive) | 20.5 µM (inactive) | 20 µM (inactive) | 22.5 µM (inactive) |
| CC12CCC(CC1(Cl)Cl)C2 (stereo not drawn) | > 100 µM (inactive) | > 100 µM (inactive) |  | > 100 µM (inactive) | > 100 µM (inactive) | > 100 µM (inactive) | > 100 µM (inactive) | > 100 µM (inactive) | > 100 µM (inactive) | > 100 µM (inactive) | > 100 µM (inactive) | > 100 µM (inactive) |  | > 100 µM (inactive) | > 100 µM (inactive) | > 100 µM (inactive) | > 100 µM (inactive) | > 100 µM (inactive) | > 100 µM (inactive) |  |
| O=c1oc2cccnc2n1CCCCN1CCN(c2ccccc2)CC1 | > 100 µM (inactive) | > 100 µM (inactive) | > 100 µM (inactive) | > 100 µM (inactive) |  | > 100 µM (inactive) | > 100 µM (inactive) |  | > 100 µM (inactive) | > 100 µM (inactive) | > 100 µM (inactive) | > 100 µM (inactive) | > 100 µM (inactive) | > 100 µM (inactive) | 89.1 µM (inactive) | > 100 µM (inactive) | > 100 µM (inactive) | > 100 µM (inactive) | > 100 µM (inactive) | > 100 µM (inactive) |
| Cc1cc2c(cc1Cl)SC(NNC(=O)c1ccncc1)=NS2(=O)=O | > 10 µM (inactive) | > 10 µM (inactive) | > 10 µM (inactive) | > 10 µM (inactive) | > 10 µM (inactive) | > 10 µM (inactive) | > 10 µM (inactive) | > 10 µM (inactive) | > 10 µM (inactive) | > 10 µM (inactive) | > 10 µM (inactive) | > 10 µM (inactive) | > 10 µM (inactive) | > 10 µM (inactive) | > 10 µM (inactive) | > 10 µM (inactive) | > 10 µM (inactive) | > 10 µM (inactive) |  | > 10 µM (inactive) |
| CC[C@]12C=CCN3CCC4(c5cc([C@@]6(C(=O)OC)CC7CN(CCc8c6[nH]c6ccccc86)C[C@@H]6CCC[C@H]76)c(OC)cc5N(C)C4[C@](O)(C(=O)OC)C1OC(C)=O)C32 (stereo partly drawn) | 0.157 µM (active) | 0.0585 µM (active) | 0.0762 µM (active) | 0.00318 µM (active) |  | 0.167 µM (active) | 0.106 µM (active) | 0.201 µM (active) | 0.741 µM (active) | 0.135 µM (active) | 0.185 µM (active) | 0.127 µM (active) | 0.108 µM (active) | 0.061 µM (active) | 0.104 µM (active) | 0.168 µM (active) | 0.0324 µM (active) | 0.231 µM (active) | 0.0127 µM (active) | 0.251 µM (active) |
| O=c1c2ccccc2n2c(-c3ccccc3O)nnc2n1-c1ccccc1 | > 100 µM (inactive) | > 100 µM (inactive) | > 100 µM (inactive) | > 100 µM (inactive) |  | > 100 µM (inactive) | > 100 µM (inactive) | > 100 µM (inactive) | > 100 µM (inactive) | > 100 µM (inactive) | > 100 µM (inactive) | > 100 µM (inactive) | > 100 µM (inactive) | > 100 µM (inactive) | > 100 µM (inactive) | > 100 µM (inactive) | > 100 µM (inactive) | > 100 µM (inactive) | > 100 µM (inactive) | > 100 µM (inactive) |
| CCOC(=O)CCC(NC(=O)c1ccc(CNc2nc3ccccc3nc2C(=O)OCC)cc1)C(=O)OCC (stereo not drawn) | > 100 µM (inactive) |  | 24.9 µM (inactive) | 3.01 µM (inactive) |  |  | > 100 µM (inactive) | > 100 µM (inactive) | > 100 µM (inactive) | > 100 µM (inactive) | > 100 µM (inactive) | > 100 µM (inactive) | > 100 µM (inactive) | 78.7 µM (inactive) | 77.3 µM (inactive) | > 100 µM (inactive) | > 100 µM (inactive) | > 100 µM (inactive) | > 100 µM (inactive) | > 100 µM (inactive) |
| CN/C(=N\n1cnnc1)OC | > 100 µM (inactive) |  | > 100 µM (inactive) | > 100 µM (inactive) |  | > 100 µM (inactive) | > 100 µM (inactive) |  | > 100 µM (inactive) | > 100 µM (inactive) | > 100 µM (inactive) |  | > 100 µM (inactive) | > 100 µM (inactive) | > 100 µM (inactive) | > 100 µM (inactive) | > 100 µM (inactive) | > 100 µM (inactive) | > 100 µM (inactive) | > 100 µM (inactive) |
| O=C(NCCCN(CCCCN(CCCNC(=O)c1cc(S(=O)(=O)O)cc(O)c1O)C(=O)c1cc(S(=O)(=O)O)cc(O)c1O)C(=O)c1cc(S(=O)(=O)O)cc(O)c1O)c1cc(S(=O)(=O)O)cc(O)c1O |  | 66.1 µM (inactive) | > 100 µM (inactive) | > 100 µM (inactive) | > 100 µM (inactive) | > 100 µM (inactive) |  | > 100 µM (inactive) |  |  | > 100 µM (inactive) | > 100 µM (inactive) | > 100 µM (inactive) |  | > 100 µM (inactive) | > 100 µM (inactive) | > 100 µM (inactive) | > 100 µM (inactive) |  | > 100 µM (inactive) |
| CC(C)(C)C(=O)C(C(=O)C(C)(C)C)C(=O)C(C)(C)C | > 100 µM (inactive) | > 100 µM (inactive) | > 100 µM (inactive) | > 100 µM (inactive) |  | > 100 µM (inactive) | > 100 µM (inactive) | > 100 µM (inactive) | > 100 µM (inactive) | 43.5 µM (inactive) | > 100 µM (inactive) | > 100 µM (inactive) | > 100 µM (inactive) | > 100 µM (inactive) | > 100 µM (inactive) | > 100 µM (inactive) | > 100 µM (inactive) | > 100 µM (inactive) | > 100 µM (inactive) | > 100 µM (inactive) |
